According to US20260217712A1, “SOLID STATE FORMS OF MNK INHIBITORS” (4E Therapeutics, Inc., priority 2023, published 2026):
≈ marks a conversion by molar mass, not a printed value. Entries after “also recorded” stand apart in the source; their conditions may differ. Like-named read-outs stand apart in the source and are kept apart here.

Experiments:
Format in all cases: physicochemical
[1] = Gravimetric vapor sorption (GVS) and XRPD post-GVS; conditions: for GVS reversible water uptake 0-90% RH: 25° C.; for Post GVS XRPD form: after double cycle GVS
Procedure: Sorption isotherms were obtained using a SMS DVS Intrinsic moisture sorption analyzer, controlled by DVS Intrinsic Control software. The sample temperature was maintained at 25° C. by the instrument controls. The humidity was controlled by mixing streams of dry and wet nitrogen, with a total flow rate of 200 mL/min. The relative humidity was measured by a calibrated Rotronic probe (dynamic range of 1.0-100% RH), located near the sample. The weight change, (mass relaxation) of the sample as a function of % RH was constantly monitored by a microbalance (accuracy±0.005 mg).
(§1) Typically, 5-30 mg of sample was placed in a tared mesh stainless steel basket under ambient conditions. The sample was loaded and unloaded at 40% RH and 25° C. (typical room conditions). A moisture sorption isotherm was performed as outlined below (2 scans per complete cycle). The standard isotherm was performed at 25° C. at 10% RH intervals over a 0-90% RH range. Typically, a double cycle (4 scans) was carried out. Data analysis was carried out within Microsoft Excel using the DVS Analysis Suite.
Sorption isotherms were obtained using a Hiden IGASorp moisture sorption analyser, controlled by Isochema HISorp software. The sample temperature was maintained at 25° C. by a Grant LT ecocool 150 re-circulating water bath. The humidity was controlled by mixing streams of dry and wet nitrogen, with a total flow rate of 250 ml·min-1. The relative humidity was measured by a calibrated Vaisala RH probe (dynamic range of 0-95% RH), located near the sample. The weight change, (mass relaxation) of the sample as a function of % RH was constantly monitored by the microbalance (accuracy±0.001 mg).
as §1, with “Typically, 20-30” for “Typically, 5-30”, “scans giving 1” for “scans per”, “within the Isochema HISorp 2019 software and exported into” for “within”, “Excel to present accordingly.” for “Excel using the DVS Analysis Suite.”

[2] = Drying / standing under ambient conditions, XRPD; conditions: ambient conditions
Procedure: Structure (I) (Sample 28-2, 30 mg, Poorly Crystalline Pattern 3) was wetted with solvent (300 μL, 10 vol) according to Table 30 and put into a shaker at 50° C. for 6 days. The suspensions were isolated using filter cartridges and positive pressure. A XRPD pattern was collected for each sample. […] This characterization is presented and discussed in Examples detailed herein. (see, e.g., FIG. 75)

[3] = Competitive slurries of Pattern 3 and Pattern 11, XRPD
Procedure: A solid mixture of Structure (I) Pattern 3 (from Lot B, 300 mg) and Pattern 11 (Sample 35-1, 300 mg) was mixed for 3 hours using a turbula mixer.
The solid mixture (30 mg) was suspended in solvent (dried with molecular sieves, 600 μL, 20 vol) and either stirred in the fridge, shaken at RT or 55° C. After 7 days, an aliquot of each suspension was analyzed by XRPD. Samples that were still a mixture of forms were placed back into fridge/shakers for a further 10 days and re-analyzed (results shown in Table 36).
Competitive slurry experiments at 55° C., along with one at 5° C., were repeated using a saturated solution as the solvent mixture to minimize dissolution that may have occurred at temperatures other than room temperature.
A saturated solution of THF/Water (9:1) (5 mL) with Structure (I) (from Lot B) was equilibrated at 55° C. overnight in a shaker. The solution was filtered using 0.45 μm nylon filter before use.
A solid mixture of Pattern 3 and Pattern 11 (30 mg) was suspended in the saturated solution (600 μL, 20 vol) and either stirred in the fridge (5° C.) or shaken at 55° C. After 1 day, aliquots of the suspensions were analyzed by XRPD. Both samples were placed back into fridge/shaker. After a total of 11 days, the samples were removed from fridge/shaker. Sample 38-2 was filtered before XRPD, Sample 38-1 was pipetted onto the XRPD holder and allowed to dry before analysis (solid passed through filter).

[4] = Static storage at 40° C./75% RH, XRPD and HPLC post storage; conditions: 7 days, listed as 34-1
[5] = Drying / standing under ambient conditions, XRPD; conditions: listed as 34-1
[6] = Static storage at 25° C./97% RH, XRPD and HPLC post storage; conditions: 10 days
[7] = Thermodynamic solubility in simulated media and buffers; conditions: for solubility at 24 h: 25 °C, thermodynamic from solid
Procedure: The thermodynamic solubility for Pattern 11 was determined in 3 simulated media and two buffers. […]

[8] = Static storage at 40° C./75% RH, XRPD and HPLC post storage
Procedure: Purity analysis was performed on an Agilent HP1100/Infinity II 1260 series system equipped with a diode array detector and using OpenLAB software. The full method details are provided below:
Poorly Crystalline Structure (I) (from Lot A, Free Form Pattern 1, 30 mg) was dissolved in 50 volumes of THF:Water 9:1 at 60° C. in 13 vials, stirring at 500 RPM (small amount of debris present). The solutions were then treated with 1.1 molar equivalents (90/180 μL) of selected counter-ions (Table 7). The resulting solutions were then cooled down to 5° C. at 0.1° C./min and were held at this temperature for 2 days. The suspensions were filtered and dried under suction for 20 min. The gummed sample was left with the cap off to promote crystallization. All solids obtained were initially analyzed by XRPD and stored in glass HPLC vials for subsequent analysis.
Any solids obtained were analyzed by XRPD, ^1H NMR, HPLC, TGA, DSC, XRPD post storage at 40° C./75% RH after 7 days & IC if necessary. Additional microscopy techniques (PLM & HSM) were used to complement the above analysis where appropriate.

hygroscopicity (in words) [1]: only slightly hygroscopic | GVS reversible water uptake 0-90% RH [1]: 0.3 wt % | Post GVS XRPD form [1]: remained Pattern 11 | Post GVS XRPD form ([1]; listed as 35-1): Post GVS XRPD: Pattern 11 + peak at 7.7° | hygroscopicity (in words) ([1]; listed as Structure (I) Pattern 11): only slightly hygroscopic | form conversion in competitive slurries (in words) [3]: no conversion of Pattern 11 to Pattern 3 | XRPD post storage at 40° C./75% RH [4]: 7 days: Pattern 11 + extra peaks (not | form under ambient conditions (XRPD after ambient overnight) [5]: Pattern 11 | Static storage 25° C./97% RH, form [6]: 10 days: No change in form-Pattern 11 | Static storage 25° C./97% RH, purity [6]: Purity: 98.1% | Solubility FaSSGF ([7]; FaSSGF, 25° C./24 h, listed as 35-1): FaSSGF-0.078 mg/mL | solubility at 24 h ([7]; FaSSIF, fassif, FaSSIF, 25° C./24 h, read-out: Solubility FaSSIF): 1.4 µg/mL (≈ 3.82 µM) | solubility at 24 h ([7]; FeSSIF, fessif, FeSSIF, 25° C./24 h, read-out: Solubility FeSSIF): 4 µg/mL (≈ 10.9 µM) | Solubility pH 2.0 ([7]; pH 2.0 buffer, 25° C./24 h, listed as 35-1): pH 2.0-0.052 mg/mL | solubility at 24 h ([7]; pH 7.4 buffer, pH 7.4, aqueous buffer, pH 7.4 buffer, 25° C./24 h, read-out: Solubility pH 7.4): 1 µg/mL (≈ 2.73 µM) | solubility in simulated fluids and buffers (in words) ([7]; simulated media and buffers): practically insoluble | XRPD form after storage at 40° C./75% RH, 3 days ([8]; 40° C./75% RH, 3 days): 3 days: No change in form-Pattern 11 | Static storage 40° C./75% RH, form ([8]; 40° C./75% RH, 10 days): form and purity was found to stable | Static storage 40° C./75% RH, purity ([8]; 40° C./75% RH, 10 days): Purity: 98.0% | Static storage 40° C./75% RH, form ([8]; 40° C./75% RH, 10 days, listed as 35-1): 10 days: No change in form-Pattern 11
SMILES: Cc1cc(Nc2cc(N)ncn2)c(=O)n2c1C(=O)NC21CCC2(CC2)CC1 [Pattern 11]
GVS reversible water uptake 0-90% RH ([1]; listed as 35-1): 0.3 wt % reversible water uptake 0-90% RH with a | form under ambient conditions (XRPD after ambient overnight) [2]: stable at ambient conditions; also recorded: stable at room temperature | stability to storage at 40° C./75% RH (in words) ([8]; 40° C./75% RH (elevated temperature and humidity)): reasonable stability; also recorded: good stability
